# Measurements from patent publication US11613531B2, “Inhibitors of RHO associated coiled-coil containing protein kinase” (Kadmon Corporation, LLC, priority 2017, dated 2023).
# System: UUO-induced renal fibrosis in mice
# Assay: Unilateral ureteral obstruction (UUO)-induced renal fibrosis model
# Assay type: in vivo
# Conditions: oral 3 mg/kg BID, 6 mg/kg BID and 10 mg/kg QD, Day 10, Masson's trichrome
# Text: FIG. 11a. ROCK inhibitor is active in a mouse model of renal fibrosis. Representative images of kidney sections stained with Masson's trichrome to visualize collagen and fibrosis in mice treated with ROCK inhibitor in the ureteral obstruction (UUO) induced renal fibrosis mouse model.
# FIG. 11b. Quantitation of the decrease in the interstitial fibrosis index in the histopathological analysis of the images from ROCK inhibitor and vehicle treated mice in the UUO induced renal fibrosis mouse model.
# Unilateral Ureteral Obstruction (UUO)-Induced Renal Fibrosis Model in Mice
# Male C57B/L6 mice were anesthetized with Isoflurane and placed in dorsal recumbency and the abdominal region was shaved and prepared for surgery with alternating scrub wipes of iodine or chlorhexidine scrub and 70% isopropyl alcohol. […] All animals were monitored closely for 3 days. […]
# To assess the activity of ROCK inhibitors in modulation of additional organ fibrosis in an in vivo setting, ROCK inhibitor was tested in a UUO model of renal fibrosis. […] The animals were sacrificed on Day 10 following surgery and the extent of fibrosis was determined by histopathological analysis of fixed kidney sections stained with Masson's trichrome. […]
# The improvement in the kidney fibrosis following UUO was quantitated based on the individual image scores by a pathologist blinded to the group assignments. […]
smiles,measurement,value
"Clc1cnc(N2C3CCC2CNC3)nc1Nc1ccc2[nH]ncc2c1 [Example 192, N-(2-(3,8-diazabicyclo[3.2.1]octan-8-yl)-5-chloropyrimidin-4-yl)-1H-indazol-5-amine]",amount of interstitial collagen in the obstructed kidney,significantly lower
